These results are taken from patent publication US8362000B2, “Azetidinyl diamides as monoacylglycerol lipase inhibitors” (Janssen Pharmaceutica NV, priority 2009, dated 2013).

In one test the target is T1, MGL (Rattus norvegicus, UniProt Q8R431).
T1 construct: one g rat brain was homogenized using a Polytron homogenizer; from tissue; host or cells: rat brain homogenate
T1 sequence (Q8R431 1-303): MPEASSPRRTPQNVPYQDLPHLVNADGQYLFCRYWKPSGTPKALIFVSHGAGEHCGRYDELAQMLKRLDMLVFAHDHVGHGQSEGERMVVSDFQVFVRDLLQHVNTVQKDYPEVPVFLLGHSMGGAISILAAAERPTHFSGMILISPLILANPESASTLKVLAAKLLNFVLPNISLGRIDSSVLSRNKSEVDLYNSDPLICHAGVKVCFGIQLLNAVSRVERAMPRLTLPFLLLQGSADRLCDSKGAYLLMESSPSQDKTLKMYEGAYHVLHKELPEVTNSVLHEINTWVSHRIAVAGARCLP
Description: 2-AG accumulation assay in rat brain homogenate. Type of test: biochemical. As to conditions: rat brain homogenate, 2-AG accumulation as percent of vehicle; for 2-AG accumulation, % of vehicle control at 1 µM: compound 1 μM, read-out: Rat Brain 2AG % VehCntrl (%) @ 1 μM; for 2-AG accumulation, % of vehicle control at 10 µM: compound 10 μM, read-out: Rat Brain 2AG % VehCntrl (%) @ 10 μM.

A further test concerns the target T2, mutant MGL (Homo sapiens, UniProt Q99685, L169S/L176S).
T2 sequence (Q99685 1-303 L169S/L176S): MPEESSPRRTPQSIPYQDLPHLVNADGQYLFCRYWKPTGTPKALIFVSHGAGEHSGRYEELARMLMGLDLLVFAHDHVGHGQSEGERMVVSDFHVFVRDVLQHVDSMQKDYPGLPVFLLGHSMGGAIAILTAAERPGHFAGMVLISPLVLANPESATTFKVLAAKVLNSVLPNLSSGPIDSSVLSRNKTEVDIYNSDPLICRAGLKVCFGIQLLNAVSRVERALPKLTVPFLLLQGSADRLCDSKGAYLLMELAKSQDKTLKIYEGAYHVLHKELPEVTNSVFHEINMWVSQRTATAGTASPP
Briefly: MGL ThermoFluor assay - mutant. Type of test: binding. As to conditions: read-out: MGL mutant ThermoFluor Kd.

[1] abbreviates: ThermoFluor thermal stability binding assay.
[2] abbreviates: ThermoFluor concentration-response.

Structures are written as SMILES. pKd: −log10 of the molar value. Where two headings read alike, the source gives them in different places.

Consider `O=C(c1ccc2c(c1)CCCN2S(=O)(=O)c1cccc(F)c1)N1CC(N2CCN(C(=O)c3nccs3)CC2)C1` [Cpd 368, 1-[(3-Fluorophenyl)sulfonyl]-6-({3-[4-(1,3-thiazol-2-ylcarbonyl)piperazin-1-yl]azetidin-1-yl}carbonyl)-1,2,3,4-tetrahydroquinoline], for which the 2-AG accumulation, % of vehicle control at 1 µM on MGL is 434%. Besides, the pKd at mutant MGL (setting [1]) is 7.26.

Take `O=C(c1nccs1)N1CCN(C2CN(C(=O)[C@@H]3C[C@H]3c3ccccc3Cl)C2)CC1` (racemic) [Cpd 642]: the 2-AG accumulation, % of vehicle control at 1 µM on MGL is 170%. Also, at mutant MGL (setting [2]), the pKd was 6.30.

Turning to `O=C(c1ccc(OCc2cccc(Cl)c2)cc1)N1CC(N2CCN(C(=O)c3cscn3)CC2)C1` [Cpd 960], the 2-AG accumulation, % of vehicle control at 1 µM at MGL amounted to 896%. Besides, the pKd on mutant MGL (setting [1]) was 7.44.

As for `O=C(c1ccccc1)N1CCN(C2CN(C(=O)c3ccc(N4CCCCCC4)cc3)C2)CC1` [Cpd 41, 1-[4-({3-[4-(Phenylcarbonyl)piperazin-1-yl]azetidin-1-yl}carbonyl)phenyl]azepane], the 2-AG accumulation, % of vehicle control at 10 µM on MGL turned out to be 544%. The pKd on mutant MGL (setting [2]) is 8.40.

As for `O=C(c1ccc(OCc2cccc(Br)n2)cc1)N1CC(N2CCN(C(=O)c3cscn3)CC2)C1` [Cpd 987], on MGL, the 2-AG accumulation, % of vehicle control at 1 µM was determined as 320%. The pKd on mutant MGL (setting [1]) was 6.49.

With `O=C(c1cscn1)N1CCN(C2CN(C(=O)c3cc4cc(C(F)(F)F)ccc4s3)C2)CC1` [Cpd 908], the 2-AG accumulation, % of vehicle control at 1 µM on MGL amounted to 217%. Moreover, the pKd at mutant MGL (setting [1]) is 7.03.

In the case of `O=C(c1ccc2c(c1)CCCN2C(=O)C1CC1)N1CC(N2CCN(C(=O)c3nccs3)CC2)C1` [Cpd 359, 1-(Cyclopropylcarbonyl)-6-({3-[4-(1,3-thiazol-2-ylcarbon-yl)piperazin-1-yl]azetidin-1-yl}carbonyl)-1,2,3,4-tetrahydroquinoline], the 2-AG accumulation, % of vehicle control at 1 µM on MGL turned out to be 176%. The negative logarithm of the Kd (pKd) at mutant MGL (setting [1]) is 7.08.

As to `Cc1cc(C(=O)N2CC(N3CCN(C(=O)c4cscn4)CC3)C2)ccc1-c1ccccc1` [Cpd 1406], the 2-AG accumulation, % of vehicle control at 1 µM at MGL stood at 169%. Moreover, the pKd at mutant MGL (setting [2]) was 7.54.

As to `O=C(c1ccccc1)N1CCN(C2CN(C(=O)c3ccc(NCc4ccccc4)c(I)c3)C2)CC1` [Cpd 542], on MGL, the 2-AG accumulation, % of vehicle control at 1 µM is 366%. Besides, the pKd on mutant MGL (setting [2]) is 7.85.

Turning to `O=C(c1ccc2c(c1)CCCN2S(=O)(=O)c1ccccc1)N1CC(N2CCN(C(=O)c3nccs3)CC2)C1` [Cpd 366, 1-(Phenylsulfonyl)-6-({3-[4-(1,3-thiazol-2-ylcarbonyl)piperazin-1-yl]azetidin-1-yl}carbonyl)-1,2,3,4-tetrahydroquinoline], the 2-AG accumulation, % of vehicle control at 1 µM on MGL was 432%. Further, the pKd at mutant MGL (setting [1]) is 7.45.

In the case of `O=C(c1ccc(OCc2cccc(Br)n2)cc1)N1CC(N2CCN(C(=O)c3nccs3)CC2)C1` [Cpd 983], the 2-AG accumulation, % of vehicle control at 1 µM on MGL was 194%. For the same compound, at mutant MGL (setting [1]), the negative-log Kd (pKd) was 7.72.

Take `O=C(c1nccs1)N1CCN(C2CN(C(=O)c3sc4cc(F)ccc4c3Cl)C2)CC1` [Cpd 930]: on MGL, the 2-AG accumulation, % of vehicle control at 1 µM was determined as 807%. The pKd on mutant MGL (setting [1]) was 8.30.

For `O=C(c1ccc(OCc2cccnc2)c(Cl)c1)N1CC(N2CCN(C(=O)c3nccs3)CC2)C1` [Cpd 402, 1-(1-{[3-Chloro-4-(pyridin-3-ylmethoxy)phenyl]carbon-yl}azetidin-3-yl)-4-(1,3-thiazol-2-ylcarbonyl)piperazine], on MGL, the 2-AG accumulation, % of vehicle control at 1 µM came out at 97%. The pKd on mutant MGL (setting [1]) is 6.85.

As for `O=C(c1cc2cccc(C(F)(F)F)c2s1)N1CC(N2CCN(C(=O)c3nccs3)CC2)C1` [Cpd 328], the 2-AG accumulation, % of vehicle control at 1 µM on MGL worked out at 378%. For the same compound, at mutant MGL (setting [1]), the pKd is 7.09.

`O=C(c1ccccc1)N1CCN(C2CN(C(=O)c3ccc4c(ccn4-c4cccc(C(F)(F)F)c4)c3)C2)CC1` [Cpd 129, 1-[3-(Trifluoromethyl)phenyl]-5-({3-[4-(phenyl-carbonyl)piperazin-1-yl]azetidin-1-yl}carbonyl)-1H-indole]: the 2-AG accumulation, % of vehicle control at 1 µM at MGL is 499%. On mutant MGL (setting [1]), the pKd was 8.00.

Consider `COc1cc(C(=O)N2CC(N3CCN(C(=O)c4ccccc4)CC3)C2)ccc1-c1ccc(Cl)c(C(F)(F)F)c1` [Cpd 264, 1-(1-{[4′-Chloro-2-methoxy-3′-(trifluoromethyl)biphenyl-4-yl]carbonyl}azetidin-3-yl)-4-(phenylcarbonyl)piperazine], for which the 2-AG accumulation, % of vehicle control at 1 µM on MGL turned out to be 172%. For the same compound, at mutant MGL (setting [1]), the pKd is 8.00.

Take `O=C(c1ccccc1)N1CCN(C2CN(C(=O)c3ccc(SCc4cccc(Cl)c4Cl)cc3)C2)CC1` [Cpd 411, 1-[1-({4-[(2,3-Dichlorobenzyl)sulfanyl]phenyl}carbonyl)azetidin-3-yl]-4-(phenylcarbonyl)piperazine]: the 2-AG accumulation, % of vehicle control at 10 µM at MGL came out at 741%. Moreover, the pKd on mutant MGL (setting [2]) is 7.48.

On to `O=C(c1ccccc1)N1CCN(C2CN(C(=O)c3ccc(Oc4ccc(Cl)c(Cl)c4)cc3)C2)CC1` [Cpd 422, 1-(1-{[4-(3,4-Dichlorophenoxy)phenyl]carbonyl}azetidin-3-yl)-4-(phenylcarbonyl)piperazine], for which the 2-AG accumulation, % of vehicle control at 1 µM at MGL turned out to be 120%. The pKd on mutant MGL (setting [2]) was 7.27.

Take `O=C(c1ccc2oc(-c3ccccc3)nc2c1)N1CC(N2CCN(C(=O)c3cscn3)CC2)C1` [Cpd 1382, 2-Phenyl-5-({3-[4-(1,3-thiazol-4-ylcarbonyl)piperazin-1-yl]azetidin-1-yl}carbonyl)-1,3-benzoxazole]: on MGL, the 2-AG accumulation, % of vehicle control at 10 µM amounted to 293%. In addition, the pKd at mutant MGL (setting [2]) was 6.71.

As for `O=C(c1ccc(-c2ccc(Cl)cc2)cc1)N1CC(N2CCN(C(=O)c3nccs3)CC2)C1` [Cpd 163, 1-{1-[(4′-Chlorobiphenyl-4-yl)carbonyl]azetidin-3-yl}-4-(1,3-thiazol-2-ylcarbonyl)piperazine], the 2-AG accumulation, % of vehicle control at 10 µM at MGL turned out to be 923%. Also, on mutant MGL (setting [2]), the pKd was 8.46.

As for `CS(=O)(=O)N1CCCc2cc(C(=O)N3CC(N4CCN(C(=O)c5nccs5)CC4)C3)ccc21` [Cpd 361], the 2-AG accumulation, % of vehicle control at 1 µM at MGL is 186%. The negative logarithm of the Kd (pKd) at mutant MGL (setting [1]) was 6.84.

Take `O=C(c1ccccc1)N1CCN(C2CN(C(=O)c3ccc(-c4cccc(Cl)c4)cc3)C2)CC1` [Cpd 77, 1-{1-[(3′-Chlorobiphenyl-4-yl)carbonyl]azetidin-3-yl}-4-(phenylcarbonyl)piperazine]: the 2-AG accumulation, % of vehicle control at 10 µM on MGL stood at 231%. Also, the pKd on mutant MGL (setting [2]) is 8.04.

Turning to `O=C(c1ccc2c(c1)CCCN2C(=O)c1cccc(C(F)(F)F)c1)N1CC(N2CCN(C(=O)c3nccs3)CC2)C1` [Cpd 358, 6-(3-[4-(1,3-Thiazol-2-ylcarbonyl)piperazin-1-yl]-azetidin-1-yl)-carbonyl 1-[3-(trifluoromethyl)phenyl]carbonyl-1,2,3,4-tetrahydroquinoline], the 2-AG accumulation, % of vehicle control at 1 µM at MGL is 556%. The pKd at mutant MGL (setting [1]) is 7.19.

With `O=C(c1cscn1)N1CC(N2CCN(C(=O)c3cc4cc(C(F)(F)F)ccc4s3)C(c3ccccc3)C2)C1` (centres unmarked) [Cpd 905, 2-Phenyl-4-[1-(1,3-thiazol-4-ylcarbonyl)azetidin-3-yl]-1-{[5-(trifluoromethyl)-1-benzothiophen-2-yl]carbonyl}piperazine], the 2-AG accumulation, % of vehicle control at 1 µM at MGL amounted to 119%. Moreover, on mutant MGL (setting [2]), the pKd was 7.36.

Consider `O=C(c1ccc(CSc2cccc(Cl)c2)cc1)N1CC(N2CCN(C(=O)c3cscn3)CC2)C1` [Cpd 956], for which the 2-AG accumulation, % of vehicle control at 1 µM on MGL came out at 514%. Besides, the pKd at mutant MGL (setting [2]) was 7.09.

For `CC(C)(C)OC(=O)N1CCC(c2ccc(C(=O)N3CC(N4CCN(C(=O)c5cscn5)CC4)C3)cc2)CC1` [Cpd 903], at MGL, the 2-AG accumulation, % of vehicle control at 1 µM was found to be 908%. Further, the pKd on mutant MGL (setting [1]) is 7.11.

Regarding `O=C(c1ccc(-c2ccccc2)c(F)c1)N1CC(N2CCN(C(=O)c3cscn3)CC2)C1` [Cpd 170, 1-{1-[(2-Fluorobiphenyl-4-yl)carbonyl]azetidin-3-yl}-4-(1,3-thiazol-4-ylcarbonyl)piperazine], at MGL, the 2-AG accumulation, % of vehicle control at 1 µM was found to be 205%. Moreover, the pKd at mutant MGL (setting [2]) was 7.22.

As for `O=C(c1ccccc1)N1CCN(C2CN(C(=O)c3ccc(OCc4cccc(Cl)c4)c(Cl)c3)C2)CC1` [Cpd 397, 1-[1-({3-Chloro-4-[(3-chlorobenzyl)oxy]phenyl}carbonyl)azetidin-3-yl]-4-(phenylcarbonyl)piperazine], the 2-AG accumulation, % of vehicle control at 10 µM on MGL came to 243%. The pKd on mutant MGL (setting [1]) is 7.48.

In the case of `O=C(c1ccccc1)N1CCN(C2CN(C(=O)c3ccc(Sc4cccc(Cl)c4)cc3)C2)CC1` [Cpd 427, 4-(1-{[4-(3-Chloro-phenylsulfanyl)phenyl]carbonyl}azetidin-3-yl)-1-(phenylcarbonyl)-piperazine], the 2-AG accumulation, % of vehicle control at 1 µM at MGL was 163%. On mutant MGL (setting [2]), the pKd is 7.47.

Consider `O=C(c1ccccc1)N1CCN(C2CN(C(=O)c3ccc(-c4ccccc4)cc3F)C2)CC1` [Cpd 614], for which, at MGL, the 2-AG accumulation, % of vehicle control at 1 µM was determined as 87%. Moreover, the pKd at mutant MGL (setting [2]) is 7.18.

Take `Cc1nc(-c2cccc(Cl)c2)sc1C(=O)N1CC(N2CCN(C(=O)c3cscn3)CC2)C1` [Cpd 1381]: the 2-AG accumulation, % of vehicle control at 1 µM on MGL was 604%. The pKd on mutant MGL (setting [1]) was 7.08.

What is called pKd is the negative decadic logarithm of the Kd, by convention in mol/L.
